What was measured:
HCoV 229E = HCoV 229E cytopathic effect (CPE) assay, CellTiter Glo; assay type: cell-based, human coronavirus (HCov) 229E; conditions: protection of virus-induced CPE
Description: Example 238: Evaluation of antiviral activity of compounds against human coronavirus (HCov) 229E and OC43 in the cytopathic effect (CPE) assays
Compounds were assayed using standard methods against multiple coronaviral strains, including HCoV 229E and OC43 strains. The antiviral activity of compounds was calculated based on the protection of the virus-induced CPE at each concentration normalized by the virus control.
Cytopathic effect (CPE) was measured by CellTiter Glo following the manufacturer's manual. The antiviral activity of compounds was calculated based on the protection of the virus-induced CPE at each concentration normalized by the virus control.
Cell viability was measured with CellTiter Glo.

229E Mpro = 229E Mpro (Human coronavirus 229E, UniProt P0C6X1); experiment: 229E Mpro enzymatic assay (standard methods, SARS-CoV2 Mpro assay given as exemplary); assay type: biochemical, human coronavirus (HCov) 229E; conditions: 229E Mpro EC50
Procedure, shortened: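 Run by standard methods, with the SARS-CoV-2 Mpro protocol given as the model: E. coli-expressed C-His6 protease at 25 nM and substrate at 25 μM (Km 13.5 μM). Buffer pH 7.3 with 5 mM TCEP and 0.1% BSA; % inhibition versus controls fitted to variable-slope log(inhibitor)-response for IC50.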

[1] = biological target: COVID-19 (nCoV-2019, SARS-CoV2) Mpro (Severe acute respiratory syndrome coronavirus 2, UniProt P0DTD1); experiment: COVID-19 (nCoV-2019, SARS-CoV2) Mpro enzymatic assay; assay type: biochemical; conditions: 25 nM Mpro, 25 μM substrate; read-out: COVID-19 Mpro IC50
HCov OC43 = experiment: HCoV OC43 cytopathic effect (CPE) assay, CellTiter Glo; assay type: cell-based, human coronavirus (HCov) OC43; conditions: Betacoronavirus 1, OC43, read-out: OC43 IC50 (uM) MEDIAN, median

Chain of 229E Mpro (P0C6X1 2966-3267): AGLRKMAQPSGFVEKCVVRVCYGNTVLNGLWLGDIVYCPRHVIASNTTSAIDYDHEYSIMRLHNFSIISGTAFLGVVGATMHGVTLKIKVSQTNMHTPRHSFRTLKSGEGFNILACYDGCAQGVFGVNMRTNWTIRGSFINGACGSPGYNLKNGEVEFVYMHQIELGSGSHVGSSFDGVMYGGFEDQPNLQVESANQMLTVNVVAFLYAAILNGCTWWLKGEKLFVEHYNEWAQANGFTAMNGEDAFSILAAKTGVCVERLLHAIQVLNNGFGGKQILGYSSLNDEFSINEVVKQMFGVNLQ

Structure (SMILES)	EC50 (HCoV 229E; unidentified human coronavirus) [nM]	EC50 (HCoV 229E) [nM]	EC50 (229E Mpro) [nM]	IC50 [1] [nM]	IC50 (HCov OC43) [µM]
N#CN1C[C@H](O)C[C@@H]1C(=O)N(c1ccc(C2(C(F)(F)F)CC2)cc1)C(C(=O)NC1CCC(F)(F)CC1)c1cncc(F)c1 (single isomer, unassigned) [815 Isomer 1]	< 2000	–	–	–	–
N#CN1C[C@H](O)C[C@@H]1C(=O)N(c1ccc(C2(C(F)(F)F)CC2)cc1)C(C(=O)NC1CCC(F)(F)CC1)c1cncc(F)c1 (single isomer, unassigned) [815 Isomer 2]	–	< 2000	–	–	–
CC(C)(C)c1ccc(N(C(=O)[C@@]2(C)CCCN2C#N)C(C(=O)NC2CCCCC2)c2cccnc2)cc1 (single isomer, unassigned) [Compound 238 Isomer 1]	2000 to 10000	–	–	–	–
CC(C)(C)c1ccc(N(C(=O)[C@@]2(C)CCCN2C#N)C(C(=O)NC2CCCCC2)c2cccnc2)cc1 (single isomer, unassigned) [Compound 238 Isomer 2]	–	< 2000	–	–	–
CC(C)(C)c1ccc(N(C(=O)[C@H]2Cc3ccccc3CN2C#N)C(C(=O)NC2CCCCC2)c2cccnc2)cc1 (single isomer, unassigned) [Compound 374]	< 2000	–	–	–	–
CC(C)(C)c1ccc(N(C(=O)[C@H]2CCCN2C#N)C(C(=O)NC2CCCCC2)c2cccnc2)cc1 (single isomer, unassigned) [Compound 1248 Isomer 1]	< 2000	–	–	–	–
CC(C)(C)c1ccc(N(C(=O)[C@H]2CCCN2C#N)C(C(=O)NC2CCCCC2)c2cccnc2)cc1 (single isomer, unassigned) [Compound 1248 Isomer 2]	–	2000 to 10000	–	–	–
CC(C)(C)c1ccc(N(C(=O)[C@H]2CCC(C)(C)N2C#N)C(C(=O)NC2CCCCC2)c2cccnc2)cc1 (stereo partly drawn) [Compound 262, (2R)—N-(4-tert-butylphenyl)-1-cyano-N-[2-(cyclohexylamino)-2-oxo-1-(3-pyridyl)ethyl]-5,5-dimethyl-pyrrolidine-2-carboxamide]	< 2000	–	–	–	–
CN(C(=O)C(c1cccnc1)N(C(=O)[C@H]1CCCN1C#N)c1ccc(C(C)(C)C)cc1)C1CCCCC1 (stereo partly drawn) [Compound 1228, (2R)—N-(4-(tert-butyl)phenyl)-1-cyano-N-(2-(cyclohexyl(methyl)amino)-2-oxo-1-(pyridin-3-yl)ethyl)pyrrolidine-2-carboxamide]	–	–	< 2000	2000 to 10000	10 to 30
CO[C@@H]1C[C@H](C(=O)N(c2ccc(S(F)(F)(F)(F)F)cc2)C(C(=O)N(CCO)C2CCC(F)(F)CC2)c2cccnc2)N(C(=O)OCc2ccccc2)C1 (stereo partly drawn) [Compound 1244, Benzyl (2R,4R)-2-[[2-[(4,4-difluorocyclohexyl)-(2-hydroxyethyl)amino]-2-oxo-1-(3-pyridyl)ethyl]-[4-(pentafluoro-λ^6-sulfanyl)phenyl]carbamoyl]-4-methoxy-pyrrolidine-1-carboxylate]	–	–	> 30000	> 30000	> 30
N#CN1CC[C@H]2C[C@]21C(=O)N(c1ccc(S(F)(F)(F)(F)F)cc1)C(C(=O)NC1CCC(F)(F)CC1)c1cncc(F)c1 (stereo partly drawn) [Compound 1261, (1R,5S)-2-cyano-N-[2-[(4,4-difluorocyclohexyl)amino]-1-(5-fluoro-3-pyridyl)-2-oxo-ethyl]-N-[4-(pentafluoro-λ^6-sulfanyl)phenyl]-2-azabicyclo[3.1.0]hexane-1-carboxamide]	–	–	2000 to 10000	> 30000	> 30
N#CN1CC[C@H]2C[C@]21C(=O)N(c1ccc(S(F)(F)(F)(F)F)cc1)C(C(=O)NC1CCC(F)(F)CC1)c1cnccc1C(F)(F)F (stereo partly drawn) [Compound 1263, (1R,5S)-2-cyano-N-[2-[(4,4-difluorocyclohexyl)amino]-2-oxo-1-[4-(trifluoromethyl)-3-pyridyl]ethyl]-N-[4-(pentafluoro-λ^6-sulfanyl)phenyl]-2-azabicyclo[3.1.0]hexane-1-carboxamide]	–	–	10000 to 30000	> 30000	> 30
CO[C@@H]1C[C@H](C(=O)N(c2ccc(S(F)(F)(F)(F)F)cc2)C(C(=O)NCCN2CCN(C(=O)OC(C)(C)C)CC2)c2cccnc2)N(C#N)C1 (stereo partly drawn) [Compound 1267, tert-butyl4-[2-[[2-[N-[(2R,4R)-1-cyano-4-methoxy-pyrrolidine-2-carbonyl]-4-(pentafluoro-λ^6-sulfanyl)anilino]-2-(3-pyridyl)acetyl]amino]ethyl]piperazine-1-carboxylate]	–	–	< 2000	2000 to 10000	< 2
N#CN1CCC(F)(F)C1C(=O)N(c1ccc(S(F)(F)(F)(F)F)cc1)C(C(=O)NC1CCOCC1)c1cncc(F)c1 (centres unmarked) [Compound 1274, 1-cyano-3,3-difluoro-N-[1-(5-fluoro-3-pyridyl)-2-oxo-2-(tetrahydropyran-4-ylamino)ethyl]-N-[4-(pentafluoro-λ^6-sulfanyl)phenyl]pyrrolidine-2-carboxamide]	–	–	< 2000	< 2000	< 2
N#CC1(C(=O)N(c2ccc(S(F)(F)(F)(F)F)cc2)C(C(=O)NC2CCC(F)(F)CC2)c2cncc(F)c2)CC1 (centres unmarked) [Compound 1289, 1-cyano-N-[2-[(4,4-difluorocyclohexyl)amino]-1-(5-fluoro-3-pyridyl)-2-oxo-ethyl]-N-[4-(pentafluoro-λ^6-sulfanyl)phenyl]cyclopropanecarboxamide]	–	–	> 30000	> 30000	> 30
[2H]C(C(=O)NC1CCOCC1)(c1cnccn1)N(C(=O)[C@H]1C[C@@](C)(O)CN1C#N)c1ccc(S(F)(F)(F)(F)F)cc1 (stereo partly drawn) [Compound 1305, (2R,4R)-1-cyano-N-[1-deuterio-2-oxo-1-pyrazin-2-yl-2-(tetrahydropyran-4-ylamino)ethyl]-4-hydroxy-4-methyl-N-[4-(pentafluoro-λ^6-sulfanyl)phenyl]pyrrolidine-2-carboxamide]	–	–	> 30000	> 30000	> 30
CO[C@@H]1C[C@H](C(=O)N(c2ccc(S(F)(F)(F)(F)F)cc2)C(C(=O)NC2CCC(F)(F)CC2)c2nncn2C(C)C)N(C#N)C1 (stereo partly drawn) [Compound 1307, (2R,4R)-1-cyano-N-[2-[(4,4-difluorocyclohexyl)amino]-1-(4-isopropyl-1,2,4-triazol-3-yl)-2-oxo-ethyl]-4-methoxy-N-[4-(pentafluoro-λ6-sulfanyl)phenyl]pyrrolidine-2-carboxamide]	–	–	> 30000	> 30000	> 30
CO[C@@H]1C[C@H](C(=O)N(c2ccc(S(F)(F)(F)(F)F)cc2)C(C(=O)NC2CCC(F)(F)CC2)c2cncs2)N(C#N)C1 (stereo partly drawn) [Compound 1311, (2R,4R)-1-cyano-N-[2-[(4,4-difluorocyclohexyl)amino]-2-oxo-1-thiazol-5-yl-ethyl]-4-methoxy-N-[4-(pentafluoro-λ^6-sulfanyl)phenyl]pyrrolidine-2-carboxamide]	–	–	< 2000	< 2000	< 2
N#CN1CCOC[C@@H]1C(=O)N(c1ccc(S(F)(F)(F)(F)F)cc1)C(C(=O)NC1CCC(F)(F)CC1)c1cccnc1 (stereo partly drawn) [Compound 1315, (3R)-4-cyano-N-[2-[(4,4-difluorocyclohexyl)amino]-2-oxo-1-(3-pyridyl)ethyl]-N-[4-(pentafluoro-λ6-sulfanyl)phenyl]morpholine-3-carboxamide]	–	–	< 2000	< 2000	< 2
CO[C@@H]1C[C@H](C(=O)N(c2ccc(S(F)(F)(F)(F)F)cc2)C(C(=O)NC2CCC(F)(F)CC2)c2ccnnc2)N(C#N)C1 (stereo partly drawn) [Compound 1320, (2R,4R)-1-cyano-N-[2-[(4,4-difluorocyclohexyl)amino]-2-oxo-1-pyridazin-4-yl-ethyl]-4-methoxy-N-[4-(pentafluoro-λ6-sulfanyl)phenyl]pyrrolidine-2-carboxamide]	–	–	> 30000	> 30000	> 30
C[C@@]1(O)C[C@H](C(=O)N(c2ccc(S(F)(F)(F)(F)F)cc2)C(C(=O)NC2CCOCC2)c2cnccn2)N(C#N)C1 (stereo partly drawn) [Compound 1322, (2R,4R)-1-cyano-4-hydroxy-4-methyl-N-[2-oxo-1-pyrazin-2-yl-2-(tetrahydropyran-4-ylamino)ethyl]-N-[4-(pentafluoro-λ6-sulfanyl)phenyl]pyrrolidine-2-carboxamide]	–	–	< 2000	< 2000	< 2
CC(C)(C)c1ccc(N(C(=O)[C@H]2C[C@@](C)(O)CN2C#N)C(C(=O)NC2CCC(F)(F)CC2)c2cnccn2)cc1 (stereo partly drawn) [Compound 1326, (2R,4R)—N-(4-(tert-butyl)phenyl)-1-cyano-N-(2-((4,4-difluorocyclohexyl)amino)-2-oxo-1-(pyrazin-2-yl)ethyl)-4-hydroxy-4-methylpyrrolidine-2-carboxamide]	–	–	< 2000	< 2000	< 2
C[C@H](NC(=O)C(c1cnccc1C(F)(F)F)N(C(=O)[C@H]1C[C@@](C)(O)CN1C#N)c1ccc(S(F)(F)(F)(F)F)cc1)c1ccccc1 (stereo partly drawn) [Compound 1347, (2R,4R)-1-cyano-4-hydroxy-4-methyl-N-[2-oxo-2-[[(1S)-1-phenylethyl]amino]-1-[4-(trifluoromethyl)-3-pyridyl]ethyl]-N-[4-(pentafluoro-λ6-sulfanyl)phenyl]pyrrolidine-2-carboxamide]	–	–	< 2000	< 2000	< 2
C[C@@H]1OCCN(C#N)[C@H]1C(=O)N(c1ccc(S(F)(F)(F)(F)F)cc1)C(C(=O)NC1CCOCC1)c1cncc(F)c1 (some centres unmarked) [Compound 1419]	–	–	< 2000	< 2000	2 to 10

Source: patent US20220380347A1, “INHIBITORS OF CYSTEINE PROTEASES AND METHODS OF USE THEREOF” (Pardes Biosciences, Inc., priority 2020, published 2022)
